Measured values reported in patent US20240293367A1, “METHODS OF TREATING DISORDERS WITH A […]” (Cybin IRL Limited, priority 2023, published 2024).
Where two headings read alike, the source gives them in different places.

Assay: Phase I/IIa clinical PK of oral psilocin-d10, plasma, noncompartmental analysis (Cohorts 1-6)
Type: in vivo, human
Details: for AUC(0-t) / AUC(0-inf) / Cmax / half-life / Vd/F / Tmax: human, plasma; for AUC(0-t) / AUC(0-inf) / Cmax / half-life / Vd/F: po; for AUC(0-inf): read-out: AUC0-inf Mean (SD); for half-life: read-out: T1/2 Mean (SD) (converted); for Vd/F: read-out: Vz/F Mean (SD); for Tmax: read-out: Tmax Median
Description: Phase I/IIa, Randomized, Double-Blind, Placebo-Controlled Study which assesses the safety, tolerability, pharmacokinetics, and pharmacodynamics of multiple ascending oral doses of psilocin-d10 in participants with and without MDD (ClinicalTrials.gov Identifier: NCT05385783). All subjects receiving study medication in Cohorts 1-6 received oral psilocin-d10 powder in solution (0.1M citric acid+Tang orange drink, 30 mL dose in a dose cup) and subjects receiving placebo received a similar volume of Tang orange drink without the psilocin-d10 study drug. All subjects receiving study medication in the relative bioavailability (BA) cohort received powder-filled capsules containing psilocin-d10 benzenesulfonate salt by ingestion with approximately 240 mL room temperature water, or oral psilocin-d10 powder in solution (0.1M citric acid+Tang orange drink, 30 mL dose in a dose cup) in a cross-over design. Psilocin-d10 for the powder in solution dosage form was manufactured by Patheon Pharma Services, with an isotopic purity of 79.89%. Psilocin-d10 benzenesulfonate salt for the powder-filled capsule dosage form was manufactured by Patheon Pharma Services, with an isotopic purity of 85.20%.
Cohorts 1, 4, 5, and 6 of the study was comprised of participants with MDD. Cohorts 2, 3, and the relative BA cohort of the study were comprised of normal healthy volunteers (NHV). […] MDD participants had been on a stable dose of antidepressant medication for at least one month prior to screening with an inadequate response to that antidepressant medication as judged by the Investigator, and continued to receive their prescribed antidepressant throughout the course of the study.
Cohort 1. For Cohort 1, 2 sentinel subjects were randomized and dosed, including 1 subject who received a psilocin-d10 1 mg oral dose and 1 subject who received a placebo dose. After the sentinel subjects were dosed, an additional 2 subjects were dosed, including a replacement subject for one of the sentinel subjects who withdrew consent and one additional subject. In total, four Cohort 1 subjects received a first dose of study medication on Day 1, and 3 subjects received a second dose of study medication on Day 22. For the first dose, 2 subjects received an active psilocin-d10 1 mg dose and 2 subjects received placebo. For the second dose, 3 subjects received an active psilocin-d10 1 mg dose.
Cohort 2. For Cohort 2, 4 subjects were randomized and dosed on Day 1 (2 subjects on one day, 2 subjects on the next day), including 3 subjects who received a psilocin-d10 3 mg oral dose and 1 subject who received a placebo dose. These same 4 subjects were again dosed on Day 8 (2 subjects on one day, 2 subjects on the next day), with all 4 subjects receiving a psilocin-d10 8 mg oral dose (note the actual washout was 11 days between doses).
Cohort 3. For Cohort 3 Day 1, 4 subjects were randomized and dosed on Day 1 (2 subjects on one day, 2 subjects on the next day), including 3 subjects who received a psilocin-do 8 mg oral dose and 1 subject who received a placebo dose. […] Another subject was dosed and left the study after the 2-hour PK sampling and has limited PK samples available for analysis from 0 to 2 hours—this subject's PK data has thus been excluded from the analysis presented hereinafter. For Cohort 3 Day 8, 3 subjects were dosed on Day 8 with a psilocin-d10 10 mg dose (2 sentinel subjects were dosed on one day, 1 non-sentinel subject was dosed on the next day).
Cohorts 4 and 5. For Cohorts 4 and 5, 12 participants each (24 participants total) were randomized in a 3:1 ratio to receive 12 mg of psilocin-d10 or matched placebo in a single dosing session on Day 1. Following a 21-day interval, all participants received a dose of 12 mg psilocin-d10 on Day 22 (second dose for participants originally randomized to psilocin-d10, first dose for participants randomized to placebo), and were followed to Day 42.
Cohort 6. […]

[1] = 8 mg, 8 mg oral, Cohorts 2 and 3 NHV, pooled
[2] = 10 mg, 10 mg oral, Cohort 3 NHV, Day 8
[3] = 12 mg, 12 mg oral, Cohort 4 MDD, Day 1 and Day 22
[4] = 12 mg, 12 mg oral, Cohort 5 MDD, Day 1 and Day 22
[5] = 12 mg, 12 mg oral, Cohorts 4 and 5 MDD, Day 1 and Day 22
[6] = 16 mg, 16 mg oral, Cohort 6 MDD, all subjects incl. 3 with emesis

Question: With `[2H]C([2H])([2H])N(C([2H])([2H])[2H])C([2H])([2H])C([2H])([2H])c1c[nH]c2cccc(O)c12` [psilocin-d10, 3-(2-(bis(methyl-d3)amino)ethyl-1,1,2,2-d4)-1H-indol-4-ol] as the molecule, how does the AUC(0-t) (8 mg, 8 mg oral, Cohorts 2 and 3 NHV, pooled, 2 subjects excluded, read-out: AUC0-24 Mean (SD)) read?
Answer: 84 ng·h/mL

Question: What about the AUC(0-inf) [1] of the same molecule?
Answer: 87.8 ng·h/mL

Question: What about the AUC(0-t) (8 mg, 8 mg oral, Cohorts 2 and 3 NHV, pooled, read-out: AUClast Mean (SD)) of the same molecule?
Answer: 84 ng·h/mL

Question: What about the Cmax (8 mg, 8 mg oral, Cohorts 2 and 3 NHV, pooled, read-out: Cmax Median) of the same molecule?
Answer: 17.1 ng/mL

Question: What about the half-life [1] of the same molecule?
Answer: 331 min

Question: And the Vd/F [1]?
Answer: 744 L

Question: What about the AUC(0-t) (10 mg, 10 mg oral, Cohort 3 NHV, Day 8, read-out: AUC0-24 Mean (SD)) of the same molecule?
Answer: 101 ng·h/mL

Question: What about the AUC(0-inf) [2] of the same molecule?
Answer: 106 ng·h/mL

Question: What about the AUC(0-t) (10 mg, 10 mg oral, Cohort 3 NHV, Day 8, read-out: AUClast Mean (SD)) of the same molecule?
Answer: 101 ng·h/mL

Question: What about the Cmax (10 mg, 10 mg oral, Cohort 3 NHV, Day 8, read-out: Cmax Mean (SD)) of the same molecule?
Answer: 13.4 ng/mL

Question: And the Cmax (10 mg, 10 mg oral, Cohort 3 NHV, Day 8, read-out: Cmax Median)?
Answer: 10.9 ng/mL

Question: And the half-life [2]?
Answer: 307 min

Question: And the Vd/F [2]?
Answer: 758 L

Question: And the AUC(0-t) (12 mg, 12 mg oral, Cohort 4 MDD, Day 1 and Day 22, read-out: AUC0-24 Mean (SD))?
Answer: 155 ng·h/mL

Question: What about the AUC(0-inf) [3] of the same molecule?
Answer: 165 ng·h/mL

Question: What about the AUC(0-t) (12 mg, 12 mg oral, Cohort 4 MDD, Day 1 and Day 22, read-out: AUClast Mean (SD)) of the same molecule?
Answer: 154 ng·h/mL

Question: And the Cmax (12 mg, 12 mg oral, Cohort 4 MDD, Day 1 and Day 22, read-out: Cmax Mean (SD))?
Answer: 19.7 ng/mL

Question: What about the Cmax (12 mg, 12 mg oral, Cohort 4 MDD, Day 1 and Day 22, read-out: Cmax Median) of the same molecule?
Answer: 18.6 ng/mL

Question: And the half-life [3]?
Answer: 337 min

Question: And the Vd/F [3]?
Answer: 668 L

Question: And the AUC(0-t) (12 mg, 12 mg oral, Cohort 5 MDD, Day 1 and Day 22, read-out: AUC0-24 Mean (SD))?
Answer: 137 ng·h/mL

Question: And the AUC(0-inf) [4]?
Answer: 144 ng·h/mL

Question: What about the AUC(0-t) (12 mg, 12 mg oral, Cohort 5 MDD, Day 1 and Day 22, read-out: AUClast Mean (SD)) of the same molecule?
Answer: 137 ng·h/mL

Question: What about the Cmax (12 mg, 12 mg oral, Cohort 5 MDD, Day 1 and Day 22, read-out: Cmax Mean (SD)) of the same molecule?
Answer: 16.9 ng/mL

Question: And the Cmax (12 mg, 12 mg oral, Cohort 5 MDD, Day 1 and Day 22, read-out: Cmax Median)?
Answer: 14.8 ng/mL

Question: What about the half-life [4] of the same molecule?
Answer: 305 min

Question: What about the Vd/F [4] of the same molecule?
Answer: 666 L

Question: What about the AUC(0-t) (12 mg, 12 mg oral, Cohorts 4 and 5 MDD, Day 1 and Day 22, read-out: AUC0-24 Mean (SD)) of the same molecule?
Answer: 146 ng·h/mL

Question: And the AUC(0-inf) [5]?
Answer: 155 ng·h/mL

Question: What about the AUC(0-t) (12 mg, 12 mg oral, Cohorts 4 and 5 MDD, Day 1 and Day 22, read-out: AUClast Mean (SD)) of the same molecule?
Answer: 145 ng·h/mL

Question: What about the Cmax (12 mg, 12 mg oral, Cohorts 4 and 5 MDD, Day 1 and Day 22, read-out: Cmax Mean (SD)) of the same molecule?
Answer: 18.2 ng/mL

Question: And the Cmax (12 mg, 12 mg oral, Cohorts 4 and 5 MDD, Day 1 and Day 22, read-out: Cmax Median)?
Answer: 16.2 ng/mL

Question: What about the half-life [5] of the same molecule?
Answer: 321 min

Question: What about the Vd/F [5] of the same molecule?
Answer: ~667 L

Question: What about the Cmax (16 mg, 16 mg oral, Cohort 6 MDD, Day 1 and Day 22, all subjects incl. 3 with emesis, read-out: Cmax Mean (SD)) of the same molecule?
Answer: 19.8 ng/mL

Question: And the AUC(0-t) (16 mg, 16 mg oral, Cohort 6 MDD, all subjects incl. 3 with emesis, read-out: AUC0-24 Mean (SD))?
Answer: 155 ng·h/mL

Question: And the AUC(0-inf) [6]?
Answer: 161 ng·h/mL

Question: What about the AUC(0-t) (16 mg, 16 mg oral, Cohort 6 MDD, all subjects incl. 3 with emesis, read-out: AUClast Mean (SD)) of the same molecule?
Answer: 151 ng·h/mL

Question: What about the Cmax (16 mg, 16 mg oral, Cohort 6 MDD, all subjects incl. 3 with emesis, read-out: Cmax Median) of the same molecule?
Answer: 17.4 ng/mL

Question: And the half-life [6]?
Answer: 334 min

Question: What about the Vd/F [6] of the same molecule?
Answer: 986 L

Question: What about the Tmax (1 mg oral, Cohort 1 MDD, Day 1 and Day 22 pooled) of the same molecule?
Answer: 1 h

Question: And the Tmax (3 mg oral, Cohort 2 NHV, Day 1)?
Answer: 2 h

Question: And the Tmax (8 mg oral, Cohorts 2 and 3 NHV, pooled)?
Answer: 2 h

Question: What about the Tmax (10 mg oral, Cohort 3 NHV, Day 8) of the same molecule?
Answer: 1 h

Question: What about the Tmax (12 mg oral, Cohorts 4 and 5 MDD, Day 1 and Day 22) of the same molecule?
Answer: 1.03 h

Question: What about the Tmax (16 mg oral, Cohort 6 MDD, all subjects incl. 3 with emesis) of the same molecule?
Answer: 1.03 h

Question: What about the “mean clearance (CL/F), on average” value (range of means, 1 to 10 mg doses) of the same molecule?
Answer: 85.22 to 104.7 L/h
